From US20040198789A1, “Lercanidipine/ARB/diuretic therapeutic combinations” (Recordati Ireland Limited, priority 2003, published 2004)

Legend:
AT1 receptor = target: T1, AT1 receptor (Homo sapiens, UniProt P30556); details: cited from earlier work
T1 sequence (P30556 1-359): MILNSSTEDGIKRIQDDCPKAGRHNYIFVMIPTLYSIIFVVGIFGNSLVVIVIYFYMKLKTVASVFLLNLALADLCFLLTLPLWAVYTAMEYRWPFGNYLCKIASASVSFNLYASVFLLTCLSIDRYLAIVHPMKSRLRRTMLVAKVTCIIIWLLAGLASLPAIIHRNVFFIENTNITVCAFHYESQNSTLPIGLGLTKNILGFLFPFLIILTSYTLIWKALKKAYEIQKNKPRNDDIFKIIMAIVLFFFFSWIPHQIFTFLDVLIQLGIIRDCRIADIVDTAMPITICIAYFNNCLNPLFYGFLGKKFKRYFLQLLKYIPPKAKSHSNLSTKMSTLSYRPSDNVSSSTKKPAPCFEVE

[1] = cited from earlier work; for time of peak serum/plasma concentration: following oral administration; for terminal half-life: in vivo
[2] = system: reperfusion-induced hypertension in uninephrectomized anesthetized rats; test: Model of acute angiotensin-mediated renal hypertension in anesthetized rats (SBP, DBP, HR); format: in vivo, rat
Description: Male Sprague-Dawley rats, weighing 250-300 g, were anaesthetized with pentobarbital sodium (35 mg/kg, i.p.) and placed on a thermic blanket. The temperature was maintained at 37° C. with a thermoregulator via a rectal probe. The animals were tracheotomized to facilitate spontaneous breathing. A polyethylene catheter was placed in the left jugular vein to allow for infusion of pentobarbital sodium to maintain anesthesia. The left femoral vein and artery were cannulated with polyethylene catheters to allow drugs administration and to monitor blood pressure, respectively.
Animals then underwent a left nephrectomy by excising the left kidney via a flank incision. The right kidney and renal vein, artery and ureter were then exposed via a right retroperitoneal incision, under a dissecting microscope. Silk threads were placed around both vessels and ureter. The cavity was then covered with Vaseline oil.
After 30-60 minutes of basal recordings of arterial blood pressure and heart rate the threads around the renal vessels and ureter were tied close to the renal hilum to induce complete renal ischemia of the right kidney. After 2 hours of ischemia, the threads were removed to allow renal reperfusion and urine output.
For irbesartan experiments and comparisons, control (vehicle) or drug (irbesartan (100 μg/kg), lercanidipine (7.5 μg/kg), or both lercanidipine (7.5 μg/kg) and irbesartan (100 μg/kg)) were administered intravenously at 5 min after reperfusion was begun.
Results were expressed as mean values ±S.E. (in the tables) and in percent change observed.
To evaluate the effects of drugs administration on blood pressure and heart rate within each group, two-way ANOVA and Dunnet's test were used (“within treatment”). To evaluate the statistical differences among the treatment groups, data are analyzed using a three-way ANOVA (analysis of variance) with repeated measures on factor time and pre-planned multiple comparisons. The analysis was performed using, for each treatment, delta values (log transformation). […] (“between treatments”).

ACE = ACE (Homo sapiens, UniProt P12821); details: cited from earlier work
[3] = system: reperfusion-induced hypertension in uninephrectomized anesthetized rats; test: Model of acute angiotensin-mediated renal hypertension in anesthetized rats (SBP, DBP, HR); format: in vivo, rat; remark: listed apart in the source
[4] = between treatments, three-way ANOVA on delta values, lercanidipine 7.5 μg/kg, irbesartan 100 μg/kg i.v.
[5] = irbesartan 100 μg/kg i.v., n=6, time 0 min, basal, pre-drug
[6] = irbesartan 100 μg/kg i.v., n=6, time 120 min, end of ischemia, pre-drug
[7] = irbesartan 100 μg/kg i.v., n=6, time 130 min, 5 min after drug
[8] = irbesartan 100 μg/kg i.v., n=6, time 135 min, 10 min after drug
[9] = irbesartan 100 μg/kg i.v., n=6, time 150 min, 25 min after drug
[10] = irbesartan 100 μg/kg i.v., n=6, time 165 min, 40 min after drug
[11] = irbesartan 100 μg/kg i.v., n=6, time 180 min, 55 min after drug
[12] = irbesartan 100 μg/kg i.v., n=6, time […], 5 min reperfusion, pre-drug
[13] = valsartan 30 μg/kg i.v., n=7, time 0 min, basal, pre-drug
[14] = valsartan 30 μg/kg i.v., n=7, time 120 min, end of ischemia, pre-drug
[15] = valsartan 30 μg/kg i.v., n=7, time 130 min, 5 min after drug
[16] = valsartan 30 μg/kg i.v., n=7, time 135 min, 10 min after drug
[17] = valsartan 30 μg/kg i.v., n=7, time 150 min, 25 min after drug
[18] = valsartan 30 μg/kg i.v., n=7, time 165 min, 40 min after drug
[19] = valsartan 30 μg/kg i.v., n=7, time 180 min, 55 min after drug
[20] = valsartan 30 μg/kg i.v., n=7, time […], 5 min reperfusion, pre-drug
[21] = between treatments, three-way ANOVA on delta values, lercanidipine 10 μg/kg, valsartan 30 μg/kg i.v.

ACE, sequence (P12821 30-1306, species assumed): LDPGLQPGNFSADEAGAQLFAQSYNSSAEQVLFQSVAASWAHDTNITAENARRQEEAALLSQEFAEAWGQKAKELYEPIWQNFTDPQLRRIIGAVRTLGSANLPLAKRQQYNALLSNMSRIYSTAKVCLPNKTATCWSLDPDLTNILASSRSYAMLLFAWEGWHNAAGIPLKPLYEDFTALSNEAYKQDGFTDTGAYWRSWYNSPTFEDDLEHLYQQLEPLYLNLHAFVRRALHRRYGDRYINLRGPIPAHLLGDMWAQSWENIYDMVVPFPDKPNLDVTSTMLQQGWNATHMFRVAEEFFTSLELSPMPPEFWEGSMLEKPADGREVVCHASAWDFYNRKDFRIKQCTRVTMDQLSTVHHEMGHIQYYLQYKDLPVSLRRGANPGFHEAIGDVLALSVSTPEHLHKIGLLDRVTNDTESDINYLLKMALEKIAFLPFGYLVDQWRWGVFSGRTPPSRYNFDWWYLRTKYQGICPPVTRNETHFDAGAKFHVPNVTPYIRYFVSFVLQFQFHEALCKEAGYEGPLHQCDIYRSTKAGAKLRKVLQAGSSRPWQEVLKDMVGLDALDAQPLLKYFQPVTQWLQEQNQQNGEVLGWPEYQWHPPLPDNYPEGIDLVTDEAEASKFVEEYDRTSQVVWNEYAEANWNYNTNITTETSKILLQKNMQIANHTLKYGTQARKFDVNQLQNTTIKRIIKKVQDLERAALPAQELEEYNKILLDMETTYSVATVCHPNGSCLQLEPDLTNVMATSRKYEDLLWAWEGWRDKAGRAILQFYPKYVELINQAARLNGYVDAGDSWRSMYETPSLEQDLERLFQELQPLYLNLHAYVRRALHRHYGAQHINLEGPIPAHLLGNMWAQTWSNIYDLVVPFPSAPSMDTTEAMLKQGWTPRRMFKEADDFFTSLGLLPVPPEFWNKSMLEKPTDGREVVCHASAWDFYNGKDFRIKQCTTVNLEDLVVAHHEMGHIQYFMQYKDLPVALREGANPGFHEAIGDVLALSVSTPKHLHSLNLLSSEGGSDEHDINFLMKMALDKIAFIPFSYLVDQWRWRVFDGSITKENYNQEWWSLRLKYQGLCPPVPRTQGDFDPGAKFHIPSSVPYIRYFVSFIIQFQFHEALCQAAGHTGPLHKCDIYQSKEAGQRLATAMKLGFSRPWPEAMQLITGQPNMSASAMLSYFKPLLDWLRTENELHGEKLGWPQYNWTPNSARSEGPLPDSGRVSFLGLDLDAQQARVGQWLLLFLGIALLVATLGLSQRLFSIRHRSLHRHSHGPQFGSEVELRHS

In the case of `CCCCc1ncc(/C=C(\Cc2cccs2)C(=O)O)n1Cc1ccc(C(=O)O)cc1` [Eprosartan, (E)-2-butyl-1 (p-carboxybenzyl)-α-2-thienylmethylimidazole-5-acrylic acid], the “affinity for the AT1 receptor relative to the AT2 receptor” value (AT1 receptor) is given as “about 1000 times” and the “time of peak serum/plasma concentration” value [1] is given as 1 to 2 h.
In the case of `CCCCC1=NC2(CCCC2)C(=O)N1Cc1ccc(-c2ccccc2-c2nnn[nH]2)cc1` [irbesartan, 2-butyl-3-[[2′-(1H-tetrazol-5-yl)[1,1′-biphenyl]-4-yl]methyl]-1,3-diazaspiro[4.4]non-1-en-4-one], the “Diastolic blood pressure: general differences among groups: p vs Vehicle” value [2, 4] is reported as “p < 0.05”, the “Heart rate differences among groups: p vs Vehicle” value [2, 4] is reported as “ns” and the “Systolic blood pressure differences among groups: p vs Vehicle” value [2, 4] is reported as “ns”. It also gave a DBP [2, 5] of 63.8 ± 3.5 mmHg, an HR [2, 5] of 373.3 ± 14.5 beats/min and an SBP [2, 5] of 113.3 ± 6.7 mmHg. It also gave a DBP [2, 6] of 59.0 ± 2.0 mmHg, an HR [2, 6] of 360.0 ± 13.4 beats/min and an SBP [2, 6] of 112.0 ± 5.6 mmHg. For the same molecule, the DBP [2, 7] was 86.3 ± 5.8 b mmHg, the HR [2, 7] was 341.7 ± 13.8 beats/min and the SBP [2, 7] was 134.3 ± 5.5 b mmHg. For the same molecule, the DBP [2, 8] was 90.0 ± 5.6 b mmHg, the HR [2, 8] was 346.7 ± 13.6 beats/min and the SBP [2, 8] was 138.7 ± 5.3 b mmHg. The DBP [2, 9] was 91.7 ± 6.1 b mmHg, the HR [2, 9] was 361.7 ± 7.5 a beats/min and the SBP [2, 9] was 139.0 ± 5.7 b mmHg. For the same molecule, the DBP [2, 10] was 85.7 ± 6.6 b mmHg, the HR [2, 10] was 363.3 ± 11.8 a beats/min and the SBP [2, 10] was 136.0 ± 7.6 b mmHg. For the same molecule, the DBP [2, 11] was “b 79.3 ± 8.1 b mmHg”, the HR [2, 11] was 375.0 ± 13.1 b beats/min and the SBP [2, 11] was 125.7 ± 8.3 mmHg. For the same molecule, the DBP [2, 12] was 107.0 ± 4.8 mmHg, the HR [2, 12] was 336.7 ± 14.1 beats/min and the SBP [2, 12] was 153.7 ± 5.1 mmHg. For the same molecule, the “effect on heart rate (in words)” value ([2]; lercanidipine 7.5 μg/kg, irbesartan 100 μg/kg i.v., alone or together) was “no statistically significant change in heart rate”, the “effect on blood pressure (in words)” value ([2]; lercanidipine 7.5 μg/kg, irbesartan 100 μg/kg i.v., alone or together, 5 min after reperfusion) was “statistically significant decrease in both systolic and diastolic blood pressure” and the “greater affinity for AT1 receptor compared to AT2 receptor” value (AT1 receptor) was “more than 8500 fold”. For the same molecule, the “inhibition of ACE” value (ACE) was “does not inhibit” and the “time of peak serum/plasma concentration” value [1] was 1.5 to 2 h.
For `CCCCc1nc(Cl)c(CO)n1Cc1ccc(-c2ccccc2-c2nnn[nH]2)cc1.[K]` [losartan, 2-butyl-4-chloro-1-[p-(o-1H-tetrazol-5-ylphenyl)-benzyl]imidazole-5-methanol monopotassium salt], the “inhibition of ACE” value (ACE) is given as “does not inhibit”, the “time of peak serum/plasma concentration” value [1] is given as 1 h and the terminal half-life [1] is given as “about 2 hours”.
For `CCCc1nc2c(C)cc(-c3nc4ccccc4n3C)cc2n1Cc1ccc(-c2ccccc2C(=O)O)cc1` [Telmisartan, 4′-[1,4′-dimethyl-2[-propyl[2,6′-bi-1H-benzimidazol]-1′-yl)methyl]-[1,1′-biphenyl]-2-carboxylic acid], the “inhibition of ACE” value (ACE) is listed as “does not inhibit”, the “time of peak serum/plasma concentration” value [1] is listed as 0.5 to 1 h and the “administered dose eliminated unchanged in feces via biliary excretion” value ([1]; intravenous or oral administration) is listed as over 97%.
In the case of `CCCc1nc(C(C)(C)O)c(C(=O)O)n1Cc1ccc(-c2ccccc2-c2nnn[nH]2)cc1` [olmesartan, 4-(1-hydroxy-1-methylethyl)-2-propyl-1-[p-(o-1H-tetrazol-5-ylphenyl)benzyl]imidazole-5-carboxylic acid], the “inhibition of ACE” value (ACE) is listed as “does not inhibit”, the “cleared in the urine” value ([1]; following oral administration of olmesartan) is listed as 35 to 50% and the “time of peak serum/plasma concentration” value [1] is listed as 1 to 2 h.
`CCCCC(=O)N(Cc1ccc(-c2ccccc2-c2nnn[nH]2)cc1)[C@H](C(=O)O)C(C)C` [valsartan, N-(1-oxopentyl)-N-[[2′-(1H-tetrazol-5-yl)[1,1′-biphenyl]-4-yl]methyl]-L-valine] showed a DBP [2, 13] of 66.7 ± 4.1 mmHg, an HR [2, 13] of 372.9 ± 8.4 beats/min and an SBP [2, 13] of 126.4 ± 5.5 mmHg. For the same molecule, the DBP [2, 14] was 62.1 ± 4.4 mmHg, the HR [2, 14] was 366.4 ± 10.9 beats/min and the SBP [2, 14] was 120.1 ± 4.3 mmHg. It also gave a DBP [2, 15] of 90.4 ± 4.4 b mmHg, an HR [2, 15] of 372.1 ± 10.0 beats/min and an SBP [2, 15] of 145.6 ± 1.7 mmHg. For the same molecule, the DBP [2, 16] was 87.1 ± 5.2 b mmHg, the HR [2, 16] was 381.4 ± 7.3 beats/min and the SBP [2, 16] was 143.4 ± 1.0 a mmHg. For the same molecule, the DBP [2, 17] was 81.4 ± 4.5 b mmHg, the HR [2, 17] was 382.1 ± 6.9 beats/min and the SBP [2, 17] was 136.7 ± 1.9 b mmHg. It also gave a DBP [2, 18] of 79.7 ± 4.6 b mmHg, an HR [2, 18] of 375.7 ± 7.6 beats/min and an SBP [2, 18] of 135.6 ± 4.0 b mmHg. It also gave a DBP [2, 19] of 77.3 ± 4.7 b mmHg, an HR [2, 19] of 368.6 ± 6.7 beats/min and an SBP [2, 19] of 130.0 ± 3.9 b mmHg. The DBP [2, 20] was 108.1 ± 3.8 mmHg, the HR [2, 20] was 362.1 ± 12.9 beats/min and the SBP [2, 20] was 161.0 ± 2.4 mmHg. For the same molecule, the “Diastolic blood pressure: general differences among groups: p vs Vehicle” value [3, 21] was “p < 0.01”, the “Heart rate: general differences among groups: p vs Vehicle” value [3, 21] was “ns” and the “Systolic blood pressure: general differences among groups: p vs Vehicle” value [3, 21] was “ns”. The “effect on heart rate (in words)” value ([3]; lercanidipine 10 μg/kg, valsartan 30 μg/kg i.v., alone or together) was “no statistically significant modification on heart rate”, the “time of statistically significant decrease in diastolic blood pressure after administration” value ([3]; within treatment vs […], lercanidipine 10 μg/kg or valsartan 30 μg/kg i.v.) was 5 to 55 min and the “inhibition of ACE” value (ACE) was “does not inhibit”. The “time of peak serum/plasma concentration” value [1] was 2 to 4 h.
In the case of `CCCCc1nc(Cl)c(C(=O)O)n1Cc1ccc(-c2ccccc2-c2nn[nH]n2)cc1` [active carboxylic acid metabolite], the “time of peak serum/plasma concentration” value [1] is listed as 3 to 4 h and the terminal half-life [1] is listed as 6 to 9 h.
In the case of `CCOc1nc2cccc(C(=O)O)c2n1Cc1ccc(-c2ccccc2-c2nnn[nH]2)cc1` [Candesartan free acid], the “greater affinity for the AT1 receptor than the AT2 receptor” value (AT1 receptor) is listed as < 10,000.
